Measurements reported in patent US5430058A, “Pharmaceutical compositions comprising hydroxamate derivatives for iron removal” (Yeda Research and Development Co. Ltd., priority 1993, dated 1995).

Key:
normal red cells = experiment: Uptake of 59Fe-carrier complexes into normal red cells; assay type: cell-based, human; conditions: iron(III) complex, normal red cells
Protocol: k. Uptake of radioactive carrier-Fe complexes. DFO and the different SF derivatives were pre-complexed with iron by addition of concentrated stock solutions of 20 mg/ml carriers to ^59 FeCl3 (Amersham, England) in 0.5 ml of 150 mM NaCl, 10 mM Hepes at 3-5 molar excess of carrier for 1 hour at room temperature. To begin the flux, normal or parasitized red cells that had been washed 3 times in saline buffer and resuspended in the same buffer supplemented with 5% bovine serum albumin (BSA), 2.5 mM citrate, 2 mg/ml glucose were added to radioactive ^59 Fe-complexes at a final suspension of 20% hematocrit. After incubation at 37° C., 75 μl suspension was removed in duplicate aliquots for each time point, placed in plastic 15 ml test tube (Starstedt) and centrifuged 1 minute at 2,500 g. The supernatant was removed and the pellet immediately placed on ice. After all sampling was completed the pellets were washed twice in 15 ml of ice cold buffer containing 50 mM EDTA and lysed in distilled water. Radioactivity (Gamma emission, 700-1300 Kev) was counted and the cell number for each sample determined from hemoglobin absorption of the lysate at 410 nm.
Due to the fact that RSF's have markedly greater lipophilicity than DFO, they were expected to faster penetrate and therefore more effectively chelate intracellular iron after short exposure times. Penetration of RSF's into normal and infected red cells was estimated by monitoring uptake of the RSF's-^59 Fe(III) complexes into infected and uninfected cells and compared to DFO. In order to confirm actual uptake of Fe-RSF ileun2 rather than adsorption to the outer membrane, cells were thoroughly washed and lysates were subjected to 80,000g×20 min centrifugation. More than 90% of the total counts were found in the cytosol fraction (results not shown).
FIGS. 8a and 8b show uptake of Fe^59 -carrier complexes into normal and infected red cells. Uptake of ^59 -Fe-RSF (FIG. 8a) and ^59 Fe-DFO (FIG. 8b) into normal (open symbols) and infected (closed symbols) red cells (60% parasitemia, >90% trophozoites). The carriers were pre-complexed to ^59 FeCl3 at 4:1 ration in DMSO with 5 μM external FeCl3 (from methanolic stock solutions). The radioactive complexes were then added to 20% hematocrit cell suspensions and flux was measured. Specific activity was 485000 cpm/nmole and 369000 cpm/nmole for the RSF and DFO uptake experiments, respectively. Cell number was determined from hemoglobin absorption of lysate at 410 nm.

[1] = amino acid side chain, Tanford/Segret's scale as given by Eisenberg 1984; cited from earlier work
Plasmodium falciparum = experiment: Antimalarial activity, general comparison and statements; assay type: cell-based
Protocol: g. Bioassay of iron carrier antimalarial activity. The antimalarial activity was assayed by adding the compounds from concentrated stock solutions (in DMSO) to microcultures (24 wells, Costar) containing infected red cells (2.5% hematocrit and 2% parasitemia). The cultures were usually synchronized (4-7 hrs. windows) by incubation in 300 mM Ala, 10 mM TRIS-Cl in conjunction with gelatin flotation and used either at the trophozoite (1-2% parasitemia) or at the ring stage (4-6% parasitemia) of the erythrocyctic cycle. After the indicated time of incubation with drug and either previous to or after washing 3 times with 100 volumes growth medium, the cells were supplemented with 6 μCi of either [^3 H]-hypoxanthine or [^3 H]-Ileu (Amersham, England) per well and parasite growth assessed after 24-48 hours by harvesting the labelled cells onto glass-fiber filters (Tamar, Inc. Jerusalem) and counting of the radioactivity.
The antimalarial activity of the different chelators was initially evaluated on cultures of trophozoites which were exposed for 24 hours to different concentrations of chelators. Following that period, [^3 H]-hypoxanthine or [^3 H]-Ileu were added and 24 hours later the parasitemia and incorporation of label into macromolecular material was determined.

[2] = Extraction of iron from aqueous FeCl3/citrate into chloroform; assay type: physicochemical; conditions: 0.3 mM in chloroform vs 0.3 mM FeCl3, 0.3 mM citric acid, 40 mM TRIS, pH 6.9, overnight
Protocol: d. Extractions were performed by overnight equilibration of 0.3 mM chloroform solutions of reversed siderophore with aqueous solutions of 0.3 mM FeCl3, 0.3 mM citric acid, 40 mM TRIS, pH 6.9. The amount of iron taken up into the organic phase was determined by the absorption of the iron+complex at 430 nm. No iron uptake into chloroform solutions devoid of RSF was observed by ion chromatography.

Compound: CC[C@H](C)[C@H](NC(=O)CCOCC(CC)(COCCC(=O)N[C@H](C(=O)N(C)O)[C@@H](C)CC)COCCC(=O)N[C@H](C(=O)N(C)O)[C@@H](C)CC)C(=O)N(C)O [SF1-ileu]
- Time to maximum uptake (normal red cells): 10 to 15 min
- Maximum uptake level (normal red cells; 5 μM external Fe): 4 nmoles/10^10 cells
- Uptake t1/2 (normal red cells; 5 μM external Fe): 2 to 3 min
- Hydrophobicity [1]: 5.0
- Efficiency relative to DFO (Plasmodium falciparum; 24-48 hours exposure, various strains): 6-13 fold
- Speed of action relative to desferrioxamine (Plasmodium falciparum; faster acting than desferrioxamine): 20 fold
- Arrest of parasite growth (Plasmodium falciparum; infected red blood cells): arresting parasite growth irreversibly within a few hours
- Potency relative to desferrioxamine (Plasmodium falciparum; more potent than desferrioxamine): 15 fold
- Extraction efficiency [2]: 52
